Columns and labels:
[1] = Aqueous solubility of gemcabene calcium salt forms over 24 hours (HPLC concentration, XRPD form); format: physicochemical; details: slurry in water, approximately 25° C.
Protocol: To each vial, approximately 3 mL to 4 mL water were added and the samples were mixed at ambient temperature (approximately 25° C.) for approximately 24 hours. […] From each vial, samples of the slurries were taken after 1, 4, and 24 hours, which were separated by centrifugation. The solids were separated by centrifugation and analyzed by XRPD for solid form and by HPLC for concentration.

[2] = Stability study of gemcabene calcium salt forms (XRPD form, HPLC/CAD purity); format: physicochemical
Protocol: The stability studies were carried out using storage conditions at a) 40° C. and 75% relative humidity (RH), b) at 80° C. and c) at ambient temperature (approximately 22° C.). After 7 days and 14 days, the samples were removed from the relevant storage conditions and initially analyzed by XRPD to identify any form changes. The samples were then analyzed by HPLC/CAD (high-performance liquid chromatography equipped with a charged aerosol detector) for purity, with all solid purity values given on a w/w % basis.

## CC(C)(CCCCOCCCCC(C)(C)C(=O)[O-])C(=O)[O-].[Ca+2] [amorphous gemcabene calcium salt]
[1]; 24 hours
  change in polymorphic form during the test period (XRPD): conversion to a new polymorph, gemcabene calcium salt hydrate Crystal Form 6
[1]; sampled 1, 4, 24 hours
  change in concentration (HPLC) during the experiment: initial increase in concentration after 4 hours followed by a slight decrease in the concentration after 24 hours
[2]; 2-week study, 40° C./75% RH, 80° C. and ambient
  change in form (XRPD): No change in the form
[2]; after 2 weeks storage, all 3 storage conditions
  purity (HPLC/CAD) compared to the starting form: drop in purity
